How the values were obtained:
[1] = test system: Salmonella typhimurium strains and Escherichia coli strain WP2 uvrA; test: Ames reverse mutation assay; format: cell-based
Protocol: To further evaluate the potential genotoxicity of SRP-001 and determine the validity of the in vitro findings, a second in vivo assay, a GLP-compliant Comet assay, was conducted in accordance with ICH S2(R1) Guidance on Genotoxicity Testing and Data Interpretation for Pharmaceuticals Intended for Human Use. […] SRP-001 was tested to evaluate its mutagenic potential by measuring its ability to induce reverse mutations at selected loci of several strains of Salmonella typhimurium (S. typhimurium) and at the tryptophan locus of Escherichia coli (E. coli) strain WP2 uvrA in the presence and absence of an exogenous metabolic activation system (Bioreliance, Rockville, MD USA). Dimethyl sulfoxide (10% DMSO) was used as the vehicle. The dose levels tested in the preliminary toxicity assay were 6.67, 10.0, 33.3, 66.7, 100, 333, 667, 1000, 3333, and 5000 μg per plate. No precipitate was observed. […] The dose levels tested in the mutagenicity assay were 100, 333, 667, 1000, 3333, and 5000 μg per plate. […] In the preliminary toxicity assay, the doses tested ranged from 0.0405 to 405 μg/mL (1 mM), which was the limit dose for this assay (Bioreliance, Rockville, MD USA).

Beagle dogs [2] = test: Dose-range-finding oral toxicity study in Beagle dogs, Phase I (non-GLP); format: in vivo, dog
Protocol: 3) A Dose-Range-Finding and 7-day Repeat-Dose Oral Toxicity Study of SRP-001 in Beagle dogs (Non-GLP) Two beagle dogs (1/sex) were administered 30, 100, 250, or 500 mg/kg SRP-001. […] After a period of at least 2 d (minimum of 44 h) following the previous dose of test article, additional dose levels of SRP-001, as indicated above, were administered by oral gavage to the same 2 dogs (1 male and 1 female). Each dose was based on the dog's most recent body weight. Mortality/morbidity was observed twice daily and once prior to scheduled sacrifice. Body weights were recorded prior to randomization/selection, prior to each dose administration, and prior to scheduled sacrifice. At scheduled sacrifice, a gross necropsy was performed, and the tissues were appropriately discarded. […] Doses for Phase II of the study were set based on Phase I results. The actual dose amounts selected for Phase II of the study were 0, 30, 100, or 300 mg/kg/d of SRP-001. These doses were administered once daily for seven consecutive days to 1 Beagle dog/sex/dose.

Beagle dogs [3] = test: 7-day repeat-dose oral toxicity study in Beagle dogs, Phase II (non-GLP); format: in vivo, dog
Protocol: 7) A Dose-Range-Finding and 7-day Repeat-Dose Oral Toxicity Study of SRP-001 in Beagle dogs (Non-GLP) In Phase II of this study, 0, 30, 100, or 300 mg/kg/d of SRP-001 was administered once daily for seven consecutive days to 1 Beagle dog/sex/dose (Calvert Labs/Altasciences, Scott Township, PA USA). Mortality/morbidity was observed twice daily and once prior to scheduled sacrifice. Clinical observations were evaluated prior to each dose administration and at approximately 1-3 h post-dose and once prior to scheduled sacrifice on day 8. Body weights were recorded on days 1 and 7, and a fasted body weight was recorded prior to scheduled sacrifice on day 8. Food consumption was recorded daily. Blood for evaluation of hematology, coagulation, and clinical chemistry parameters and urine for urinalysis was collected from all animals prior to treatment initiation and from all Phase II animals prior to scheduled sacrifice on day 8. Blood for toxicokinetic evaluation was collected at selected time points on days 1 and 7. Selected tissues were harvested and weighed at necropsy. No microscopic evaluations were performed. […] The clinical observations corroborated with findings of red discoloration in the duodenum of the control group female, the jejunum of the low-dose male, and the colon of both high-dose dogs.

What does the source list for `CCN(CC)C(=O)c1ccccc1S(=O)(=O)NCC(=O)Nc1ccc(O)cc1` [SRP-001, N,N-diethyl-2-[[2-(4-hydroxyanilino)-2-oxo-ethyl]sulfamoyl]benzamide]?
mutagenic response (reverse mutations) ([1]; 100-5000 μg per plate, with and without S9): No positive mutagenic responses were observed; precipitate and toxicity ([1]; mutagenicity assay, up to 5000 μg per plate): Neither precipitate nor toxicity was observed; dose with toxicity (reduction in the revertant count) ([1]; preliminary toxicity assay, TA1537 and WP2 uvrA, absence of S9): 5000 μg per plate; body weight and food consumption (Beagle dogs [2]; 30, 100, 250 or 500 mg/kg): No test article-related effects; clinical signs (Beagle dogs [2]; 30, 100, 250 or 500 mg/kg oral gavage): Loose feces and emesis were observed following most doses; clinical signs (Beagle dogs [3]; 30, 100, 300 mg/kg/d): loose or soft feces and emesis; tolerated dose (Beagle dogs [3]; both, Beagle, dog, in vivo, 7 d): 300 mg/kg; AUC and Cmax levels (Beagle dogs [3]; dog, in vivo): increased in a dose-dependent manner, with day 1 levels higher than those from day 7
